These results are taken from ChEMBL document CHEMBL3132769, “Fragment growing to retain or alter the selectivity of anchored kinase hinge-binding fragments” (Medchemcomm, 2014).

Structures are written as SMILES.

In assay [1] the target is Casein kinase I isoform delta (Homo sapiens) (UniProt P48730). The experiment in a line: Inhibition of human CK1D catalytic domain expressed in Escherichia coli cell assessed as substrate phosphorylation using fluorescence-labelled peptides as substrate at 0.2 uM after 90 mins by microfluidic peptide phosphorylation assay.
The target in assay [2] is T1, Protein kinase C epsilon type (Homo sapiens) (UniProt Q02156).
T1 sequence (whole entry): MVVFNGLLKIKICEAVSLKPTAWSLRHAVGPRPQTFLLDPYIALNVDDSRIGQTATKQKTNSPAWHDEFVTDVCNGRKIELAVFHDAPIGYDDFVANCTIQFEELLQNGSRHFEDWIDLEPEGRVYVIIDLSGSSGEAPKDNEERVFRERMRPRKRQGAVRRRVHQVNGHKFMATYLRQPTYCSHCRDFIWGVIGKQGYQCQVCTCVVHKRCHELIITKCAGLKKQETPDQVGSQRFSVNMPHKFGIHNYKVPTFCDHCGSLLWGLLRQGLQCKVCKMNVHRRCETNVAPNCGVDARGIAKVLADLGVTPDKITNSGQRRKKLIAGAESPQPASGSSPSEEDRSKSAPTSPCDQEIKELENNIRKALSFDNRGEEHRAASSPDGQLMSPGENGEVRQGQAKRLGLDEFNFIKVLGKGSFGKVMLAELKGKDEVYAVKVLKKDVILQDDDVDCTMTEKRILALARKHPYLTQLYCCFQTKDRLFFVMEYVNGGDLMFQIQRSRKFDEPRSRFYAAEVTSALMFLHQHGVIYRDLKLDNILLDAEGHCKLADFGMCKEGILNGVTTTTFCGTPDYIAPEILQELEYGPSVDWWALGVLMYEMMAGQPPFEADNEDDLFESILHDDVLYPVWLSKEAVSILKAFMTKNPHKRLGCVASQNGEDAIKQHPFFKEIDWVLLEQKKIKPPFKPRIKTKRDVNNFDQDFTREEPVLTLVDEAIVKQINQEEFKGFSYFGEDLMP
Kind of assay: Inhibition of human truncated PKC epsilon expressed in baculovirus assessed as substrate phosphorylation using fluorescence-labelled peptides as substrate at 420 uM after 90 mins by microfluidic peptide phosphorylation assay.

Assay [3] addresses Fibroblast growth factor receptor 2 (Homo sapiens) (UniProt P21802). The experiment in a line: Inhibition of human FGFR2 catalytic domain expressed in baculovirus assessed as substrate phosphorylation using fluorescence-labelled peptides as substrate at 95 uM after 90 mins by microfluidic peptide phosphorylation assay.
Assay [4] deals with MAP kinase p38 (Homo sapiens) (UniProt O15264+Q15759+Q16539+P53778). Kind of assay: Inhibition of human full length p38 beta2 expressed in Escherichia coli cell assessed as substrate phosphorylation using fluorescence-labelled peptides as substrate at 95 uM after 90 mins by microfluidic peptide phosphorylation assay.
Assay [5] has as its target Protein kinase C beta type (Homo sapiens) (UniProt P05771). The experiment in a line: Inhibition of human truncated PKC beta1 expressed in baculovirus assessed as substrate phosphorylation using fluorescence-labelled peptides as substrate at 9 uM after 90 mins by microfluidic peptide phosphorylation assay.
The target of assay [6] is Tyrosine-protein kinase ABL2 (Homo sapiens) (UniProt P42684). The experiment in a line: Inhibition of human truncated Arg expressed in baculovirus assessed as substrate phosphorylation using fluorescence-labelled peptides as substrate at 9 uM after 90 mins by microfluidic peptide phosphorylation assay.
For assay [7], the target named is T2, Serine/threonine-protein kinase Sgk3 (Homo sapiens) (UniProt Q96BR1).
T2 sequence (whole entry): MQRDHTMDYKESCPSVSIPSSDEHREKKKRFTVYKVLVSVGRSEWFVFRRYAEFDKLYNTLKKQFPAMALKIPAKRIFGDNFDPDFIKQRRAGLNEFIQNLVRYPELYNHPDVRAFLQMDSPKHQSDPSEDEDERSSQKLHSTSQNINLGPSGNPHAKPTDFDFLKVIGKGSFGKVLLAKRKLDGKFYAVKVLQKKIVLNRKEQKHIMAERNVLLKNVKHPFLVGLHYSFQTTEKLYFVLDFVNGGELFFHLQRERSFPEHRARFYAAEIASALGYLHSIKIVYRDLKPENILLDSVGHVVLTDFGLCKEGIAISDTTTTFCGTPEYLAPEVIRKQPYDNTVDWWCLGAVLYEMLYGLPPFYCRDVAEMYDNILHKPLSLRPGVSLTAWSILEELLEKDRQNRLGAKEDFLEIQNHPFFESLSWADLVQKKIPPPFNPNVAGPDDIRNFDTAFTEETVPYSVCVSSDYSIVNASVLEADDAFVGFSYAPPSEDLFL
The experiment in a line: Inhibition of human full length SGK3 expressed in baculovirus assessed as substrate phosphorylation using fluorescence-labelled peptides as substrate at […] after 90 mins by microfluidic peptide phosphorylation assay.

Assay [8] has as its target MAP kinase-activated protein kinase 3 (Homo sapiens) (UniProt Q16644). The experiment in a line: Inhibition of human full length MAPKAPK3 expressed in Escherichia coli cell assessed as substrate phosphorylation using fluorescence-labelled peptides as substrate at […] after 90 mins by microfluidic peptide phosphorylation assay.
The target of assay [9] is Mitogen-activated protein kinase 1 (Homo sapiens) (UniProt P28482). The experiment in a line: Inhibition of human full length ERK2 expressed in Escherichia coli cell assessed as substrate phosphorylation using fluorescence-labelled peptides as substrate at 1000 uM after 90 mins by microfluidic peptide phosphorylation assay.
The target of assay [10] is Tyrosine-protein kinase Lyn (Homo sapiens) (UniProt P07948). Kind of assay: Inhibition of human full length LYN expressed in baculovirus assessed as substrate phosphorylation using fluorescence-labelled peptides as substrate at 0.06 uM after 90 mins by microfluidic peptide phosphorylation assay.
For assay [11], the target named is T3, MAP kinase-activated protein kinase 5 (Homo sapiens) (UniProt Q8IW41).
T3 sequence (whole entry): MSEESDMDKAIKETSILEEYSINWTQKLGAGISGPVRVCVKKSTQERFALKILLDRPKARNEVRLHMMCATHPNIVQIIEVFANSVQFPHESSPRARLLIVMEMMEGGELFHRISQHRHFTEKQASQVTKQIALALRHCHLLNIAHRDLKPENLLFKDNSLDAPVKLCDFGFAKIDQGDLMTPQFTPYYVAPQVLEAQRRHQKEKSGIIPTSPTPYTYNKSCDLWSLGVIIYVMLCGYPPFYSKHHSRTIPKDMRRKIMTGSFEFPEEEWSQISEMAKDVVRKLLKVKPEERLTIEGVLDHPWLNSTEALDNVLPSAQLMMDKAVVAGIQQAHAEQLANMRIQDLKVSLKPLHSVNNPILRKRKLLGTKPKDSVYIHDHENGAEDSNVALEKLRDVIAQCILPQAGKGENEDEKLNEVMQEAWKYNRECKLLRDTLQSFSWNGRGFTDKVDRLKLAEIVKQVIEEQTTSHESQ
The experiment in a line: Inhibition of human full length PRAK expressed in baculovirus assessed as substrate phosphorylation using fluorescence-labelled peptides as substrate at 2 uM after 90 mins by microfluidic peptide phosphorylation assay.

Assay [12] deals with Tyrosine-protein kinase BTK (Homo sapiens) (UniProt Q06187). The experiment in a line: Inhibition of human full length BTK expressed in baculovirus assessed as substrate phosphorylation using fluorescence-labelled peptides as substrate at 2 uM after 90 mins by microfluidic peptide phosphorylation assay.
Tyrosine-protein kinase BTK (Homo sapiens), sequence (Q06187 whole entry): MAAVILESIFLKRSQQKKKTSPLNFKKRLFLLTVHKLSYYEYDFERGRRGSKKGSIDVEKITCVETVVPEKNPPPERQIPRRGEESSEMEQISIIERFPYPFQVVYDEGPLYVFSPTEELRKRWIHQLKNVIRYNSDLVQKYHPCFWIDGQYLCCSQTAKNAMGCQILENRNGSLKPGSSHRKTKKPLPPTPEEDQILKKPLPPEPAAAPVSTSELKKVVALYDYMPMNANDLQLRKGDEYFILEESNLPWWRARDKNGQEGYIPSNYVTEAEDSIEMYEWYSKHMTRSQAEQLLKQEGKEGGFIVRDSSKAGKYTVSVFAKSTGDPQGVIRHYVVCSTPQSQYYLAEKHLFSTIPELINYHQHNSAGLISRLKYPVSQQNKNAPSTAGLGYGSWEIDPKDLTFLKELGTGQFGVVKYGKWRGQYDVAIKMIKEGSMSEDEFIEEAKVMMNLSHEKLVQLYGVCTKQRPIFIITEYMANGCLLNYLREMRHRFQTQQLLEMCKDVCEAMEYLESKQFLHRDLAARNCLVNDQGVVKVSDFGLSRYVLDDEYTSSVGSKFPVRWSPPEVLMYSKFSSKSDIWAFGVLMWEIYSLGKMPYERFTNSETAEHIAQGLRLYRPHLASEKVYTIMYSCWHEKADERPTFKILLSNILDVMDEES

Fibroblast growth factor receptor 2 (Homo sapiens), sequence (P21802 22-821 limits assumed): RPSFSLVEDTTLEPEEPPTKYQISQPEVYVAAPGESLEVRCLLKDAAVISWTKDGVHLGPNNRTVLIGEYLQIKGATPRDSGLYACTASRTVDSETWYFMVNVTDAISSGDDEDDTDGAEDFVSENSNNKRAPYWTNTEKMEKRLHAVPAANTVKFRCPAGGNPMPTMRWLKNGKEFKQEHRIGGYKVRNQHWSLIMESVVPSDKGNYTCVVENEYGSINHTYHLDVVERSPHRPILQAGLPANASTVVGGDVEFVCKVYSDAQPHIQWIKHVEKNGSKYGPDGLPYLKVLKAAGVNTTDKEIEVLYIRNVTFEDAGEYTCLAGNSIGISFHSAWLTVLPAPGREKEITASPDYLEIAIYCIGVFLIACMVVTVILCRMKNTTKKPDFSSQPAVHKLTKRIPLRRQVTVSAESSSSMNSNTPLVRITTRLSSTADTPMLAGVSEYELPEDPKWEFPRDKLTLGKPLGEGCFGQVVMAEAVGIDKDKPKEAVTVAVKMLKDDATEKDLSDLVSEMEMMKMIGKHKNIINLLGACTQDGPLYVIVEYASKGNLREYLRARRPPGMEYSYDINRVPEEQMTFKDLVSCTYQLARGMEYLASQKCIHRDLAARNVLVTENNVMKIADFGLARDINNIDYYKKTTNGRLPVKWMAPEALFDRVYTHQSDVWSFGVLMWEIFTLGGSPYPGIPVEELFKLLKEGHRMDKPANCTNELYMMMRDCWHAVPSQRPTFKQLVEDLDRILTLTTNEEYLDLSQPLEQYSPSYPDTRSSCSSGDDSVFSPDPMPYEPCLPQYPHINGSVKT
MAP kinase p38 (Homo sapiens), sequence (O15264 whole entry, looked up, the tested form may be a part): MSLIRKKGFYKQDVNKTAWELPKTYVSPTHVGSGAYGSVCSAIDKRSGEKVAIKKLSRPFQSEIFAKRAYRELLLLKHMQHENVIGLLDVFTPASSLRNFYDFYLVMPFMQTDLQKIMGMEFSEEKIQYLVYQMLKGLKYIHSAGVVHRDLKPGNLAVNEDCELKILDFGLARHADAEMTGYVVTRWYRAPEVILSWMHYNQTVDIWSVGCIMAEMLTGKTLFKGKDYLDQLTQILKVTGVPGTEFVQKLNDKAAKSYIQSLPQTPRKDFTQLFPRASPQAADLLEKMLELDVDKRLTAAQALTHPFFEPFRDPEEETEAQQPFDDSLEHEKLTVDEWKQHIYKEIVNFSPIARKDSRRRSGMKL
MAP kinase p38 (Homo sapiens), sequence (P53778 whole entry, looked up, the tested form may be a part): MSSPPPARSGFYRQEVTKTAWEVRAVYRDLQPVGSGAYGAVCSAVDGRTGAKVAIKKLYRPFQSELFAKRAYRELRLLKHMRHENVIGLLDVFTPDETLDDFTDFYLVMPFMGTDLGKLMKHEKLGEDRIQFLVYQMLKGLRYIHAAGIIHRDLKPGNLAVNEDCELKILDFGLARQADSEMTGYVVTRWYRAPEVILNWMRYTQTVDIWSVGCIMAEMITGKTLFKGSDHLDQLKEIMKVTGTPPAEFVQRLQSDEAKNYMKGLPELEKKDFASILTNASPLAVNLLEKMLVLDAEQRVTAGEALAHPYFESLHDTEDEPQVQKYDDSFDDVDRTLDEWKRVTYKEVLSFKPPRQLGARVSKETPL
MAP kinase p38 (Homo sapiens), sequence (Q15759 whole entry, looked up, the tested form may be a part): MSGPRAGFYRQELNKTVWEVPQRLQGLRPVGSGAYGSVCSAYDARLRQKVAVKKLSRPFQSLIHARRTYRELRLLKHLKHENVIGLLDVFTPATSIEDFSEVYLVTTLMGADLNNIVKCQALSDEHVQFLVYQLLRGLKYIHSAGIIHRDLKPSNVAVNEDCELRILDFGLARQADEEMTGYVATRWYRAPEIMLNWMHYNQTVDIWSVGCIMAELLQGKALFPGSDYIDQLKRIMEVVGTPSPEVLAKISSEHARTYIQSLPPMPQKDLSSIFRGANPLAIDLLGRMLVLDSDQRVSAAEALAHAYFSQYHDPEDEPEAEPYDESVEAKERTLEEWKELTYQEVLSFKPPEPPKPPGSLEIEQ
MAP kinase p38 (Homo sapiens), sequence (Q16539 whole entry, looked up, the tested form may be a part): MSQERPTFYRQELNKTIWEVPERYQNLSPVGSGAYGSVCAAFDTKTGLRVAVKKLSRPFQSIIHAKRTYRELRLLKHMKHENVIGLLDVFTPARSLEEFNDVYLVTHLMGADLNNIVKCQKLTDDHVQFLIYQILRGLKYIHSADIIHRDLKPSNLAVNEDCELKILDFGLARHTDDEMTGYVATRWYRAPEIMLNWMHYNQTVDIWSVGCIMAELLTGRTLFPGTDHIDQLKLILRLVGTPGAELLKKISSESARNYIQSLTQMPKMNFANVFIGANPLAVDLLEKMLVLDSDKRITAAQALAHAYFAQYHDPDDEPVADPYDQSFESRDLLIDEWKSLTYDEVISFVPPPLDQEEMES
Mitogen-activated protein kinase 1 (Homo sapiens), sequence (P28482 whole entry): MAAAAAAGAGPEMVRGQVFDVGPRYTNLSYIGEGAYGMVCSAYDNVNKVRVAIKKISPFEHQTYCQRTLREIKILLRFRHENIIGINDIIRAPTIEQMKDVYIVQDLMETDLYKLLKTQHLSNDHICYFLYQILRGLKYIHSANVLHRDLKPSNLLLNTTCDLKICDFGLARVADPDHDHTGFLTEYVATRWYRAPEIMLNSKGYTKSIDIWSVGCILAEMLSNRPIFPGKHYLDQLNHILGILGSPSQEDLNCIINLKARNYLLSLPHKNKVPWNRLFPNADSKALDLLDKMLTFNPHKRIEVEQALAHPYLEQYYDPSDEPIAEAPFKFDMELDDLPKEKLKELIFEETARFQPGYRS
Tyrosine-protein kinase Lyn (Homo sapiens), sequence (P07948 2-512 limits assumed): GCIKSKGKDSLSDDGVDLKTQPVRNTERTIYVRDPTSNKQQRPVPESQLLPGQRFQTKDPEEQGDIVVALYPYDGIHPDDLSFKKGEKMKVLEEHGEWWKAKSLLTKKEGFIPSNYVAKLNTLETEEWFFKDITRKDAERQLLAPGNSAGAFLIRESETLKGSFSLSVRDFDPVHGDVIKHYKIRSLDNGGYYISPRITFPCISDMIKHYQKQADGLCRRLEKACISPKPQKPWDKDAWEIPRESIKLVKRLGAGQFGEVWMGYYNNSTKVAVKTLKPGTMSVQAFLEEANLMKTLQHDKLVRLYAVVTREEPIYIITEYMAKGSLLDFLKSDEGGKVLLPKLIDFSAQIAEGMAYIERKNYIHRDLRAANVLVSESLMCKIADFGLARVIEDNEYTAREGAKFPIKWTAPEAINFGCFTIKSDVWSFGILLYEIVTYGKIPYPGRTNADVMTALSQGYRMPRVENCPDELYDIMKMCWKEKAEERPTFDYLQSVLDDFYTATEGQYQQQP
MAP kinase-activated protein kinase 3 (Homo sapiens), sequence (Q16644 whole entry, looked up): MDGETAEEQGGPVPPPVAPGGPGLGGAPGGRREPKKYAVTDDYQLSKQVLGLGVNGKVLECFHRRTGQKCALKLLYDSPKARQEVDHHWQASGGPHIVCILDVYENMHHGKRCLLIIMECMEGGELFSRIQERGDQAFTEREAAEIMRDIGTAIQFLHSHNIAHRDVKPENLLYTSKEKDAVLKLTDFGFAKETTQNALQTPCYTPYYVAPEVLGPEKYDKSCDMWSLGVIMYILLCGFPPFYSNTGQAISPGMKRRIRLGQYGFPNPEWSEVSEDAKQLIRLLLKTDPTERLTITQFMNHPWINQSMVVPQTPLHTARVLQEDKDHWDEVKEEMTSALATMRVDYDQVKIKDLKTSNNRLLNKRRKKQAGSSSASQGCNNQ
Casein kinase I isoform delta (Homo sapiens), sequence (P48730 whole entry, looked up, the tested form may be a part, canonical isoform): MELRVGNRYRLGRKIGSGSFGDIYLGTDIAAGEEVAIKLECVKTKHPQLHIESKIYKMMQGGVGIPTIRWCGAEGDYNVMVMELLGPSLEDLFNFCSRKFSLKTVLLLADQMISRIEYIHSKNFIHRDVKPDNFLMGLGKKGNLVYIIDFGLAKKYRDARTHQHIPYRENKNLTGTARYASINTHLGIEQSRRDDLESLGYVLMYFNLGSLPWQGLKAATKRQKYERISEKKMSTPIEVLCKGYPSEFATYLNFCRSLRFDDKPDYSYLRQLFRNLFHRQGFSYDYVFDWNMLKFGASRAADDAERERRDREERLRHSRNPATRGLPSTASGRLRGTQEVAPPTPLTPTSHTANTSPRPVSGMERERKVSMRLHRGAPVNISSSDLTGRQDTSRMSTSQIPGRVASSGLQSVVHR

Take `Clc1ccc(C2(c3ccc(-c4ncnc5[nH]cnc45)cc3)CCNCC2)cc1`: in [1], the inhibition was found to be 8.5%.

As for `c1nc(N2CCOCC2)c2nc[nH]c2n1`, in assay [2], the inhibition was determined as 73.5%.

`NCCc1ccc(-c2ncnc3[nH]cnc23)cc1`: the figures for the inhibition in [3] and in assay [4] were 36% and 11%, respectively.

With `NCC1CN(c2ncnc3[nH]c4cnccc4c23)CCO1` (configuration not stated), the inhibition in assay [5] worked out at 22.5%; in assay [6], 6.5%.

Consider `COC(=O)c1cnc(Nc2cnc(C#N)cn2)cc1NCC1CCNCC1`, for which the results for the inhibition in [7] and in [8] were 5% and 7%, respectively.

On to `c1cnc2[nH]ccc2c1`, for which the inhibition in [9] worked out at 23.5%.

As for `NC1(Cc2ccc(Cl)cc2)CCN(c2ncnc3[nH]ccc23)CC1`, the inhibition in [10] turned out to be 0%.

In the case of `NC1CCN(c2ncnc3[nH]ccc23)CC1`, the inhibition was 7% in assay [11] and 0.5% in assay [12].

Usually inhibition stands for how much of the control response was suppressed.
